Among the test systems are HT29 colon; DU-145 prostate; SNB-19 CNS; NCI-H23 lung; 786-0 renal; K-562 leukemia; MOLT-4 leukemia; HCC-2998 colon; PC-3 prostate; SNB-75 CNS.
Common to all, as to assay: inhibition of tumour cell growth, NCI panel, 48 h

“And” between values parts separate entries of the source, which are not always exact repeats. Identical values can stand only once.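 Values below derive from 48-hour exposures of cells grown in 96-well plates, with endpoints linearly interpolated between the two concentrations bracketing the appropriate inhibition level. The concentration for 50% growth inhibition is given as GI50. TGI marks complete inhibition of growth.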 A value given as a limit tells only on which side of the number the result lay.

As to `COc1cc(C2=NOC(c3cc(OC)c(OC)c(OC)c3)C2)ccc1OCCCCOc1cc2c(cc1OC)C(=O)N1CCC[C@H]1C=N2` (some centres not stated), the GI50 in the experiment on HT29 colon is 0.358 µM; with DU-145 prostate, 0.432 µM; with SNB-19 CNS it was 1.31 µM; in the experiment with NCI-H23 lung it was 0.241 µM; with 786-0 renal, 0.282 µM; in the experiment with K-562 leukemia, 1.72 µM. Also, the GI50 is 0.299 µM in the experiment with MOLT-4 leukemia, 0.192 µM in the experiment with HCC-2998 colon, 0.347 µM in the experiment on PC-3 prostate and 0.35 µM in the experiment with SNB-75 CNS. The TGI in the experiment on HT29 colon was > 33.2 µM; in the experiment on DU-145 prostate it was 3.28 µM; in the experiment on NCI-H23 lung, 0.559 µM; in the experiment on 786-0 renal, 0.913 µM; in the experiment with HCC-2998 colon, 0.367 µM; in the experiment with PC-3 prostate, 3.1 µM. Moreover, the TGI in the experiment with SNB-75 CNS turned out to be 1.6 µM.
Regarding `CN1CCN(C)C12C=c1ccccc1=CC21CC1`, the TGI in the experiment on HT29 colon is 32.7 µM; in the experiment with DU-145 prostate it was > 100 µM; in the experiment on SNB-19 CNS, > 100 µM; with NCI-H23 lung it was > 100 µM; in the experiment on 786-0 renal, > 100 µM; with K-562 leukemia, 46.4 µM. For the same molecule, the TGI in the experiment with MOLT-4 leukemia is 54.8 µM; in the experiment on HCC-2998 colon, 30.4 µM; in the experiment on PC-3 prostate, > 96.3 µM; in the experiment with SNB-75 CNS, > 93.1 µM.
`CCOc1cc2c(Cl)ncnc2c(OCC)c1OCC`: the GI50 with HT29 colon was 7.59 µM; with DU-145 prostate it was 1.75 µM; with SNB-19 CNS, 8.8 µM; in the experiment with NCI-H23 lung, 7.71 µM; in the experiment with 786-0 renal, 19 µM; in the experiment on K-562 leukemia, 2.72 µM. Moreover, the GI50 in the experiment with MOLT-4 leukemia was 2.87 µM; with HCC-2998 colon it was 1.88 µM; in the experiment on PC-3 prostate, 3.2 µM; with SNB-75 CNS it was 3.11 µM. For the same molecule, the TGI was 32.9 µM in the experiment with HT29 colon; 3.14 µM in the experiment on DU-145 prostate; 21.4 µM in the experiment with SNB-19 CNS; 24.2 µM in the experiment on NCI-H23 lung; 36.8 µM in the experiment with 786-0 renal; 12.5 µM with K-562 leukemia. The TGI in the experiment with MOLT-4 leukemia worked out at 10.4 µM; in the experiment with HCC-2998 colon, 3.59 µM; with PC-3 prostate, 11.4 µM; in the experiment on SNB-75 CNS it was 15.9 µM.
Take `CS(=O)(=O)c1ccc([C@H]2O[C@@H](CO)C[C@]2(O)c2ccc(S(C)(=O)=O)cc2)cc1`: the GI50 in the experiment with HT29 colon, in the experiment on DU-145 prostate, in the experiment with SNB-19 CNS, in the experiment on NCI-H23 lung, in the experiment with 786-0 renal and in the experiment with K-562 leukemia was > 100 µM each time. Moreover, the GI50 in the experiment with MOLT-4 leukemia, with HCC-2998 colon, with PC-3 prostate and with SNB-75 CNS was > 100 µM each time. Moreover, the TGI with HT29 colon, with DU-145 prostate, in the experiment with SNB-19 CNS, in the experiment with NCI-H23 lung, in the experiment on 786-0 renal and with K-562 leukemia was > 100 µM each time. Besides, the TGI in the experiment on MOLT-4 leukemia, in the experiment with HCC-2998 colon, in the experiment on PC-3 prostate and in the experiment with SNB-75 CNS was > 100 µM in each case.
Take `C=C1C(=O)O[C@H]2[C@H]1CC/C(COC(=O)c1ccc3ccccc3c1)=C\CC[C@@]1(C)O[C@@H]21`: the GI50 in the experiment on HT29 colon was 0.438 µM; with DU-145 prostate, 0.945 µM; in the experiment with SNB-19 CNS, 1.36 µM; with NCI-H23 lung, 1.6 µM; with 786-0 renal it was 1.18 µM; in the experiment on K-562 leukemia it was 0.39 µM. In addition, the GI50 was 0.503 µM in the experiment with MOLT-4 leukemia, 1.75 µM with HCC-2998 colon, 1.24 µM in the experiment with PC-3 prostate and 1.44 µM in the experiment on SNB-75 CNS. Moreover, the TGI in the experiment with HT29 colon turned out to be 1.65 µM; in the experiment on DU-145 prostate, 2.23 µM; in the experiment with SNB-19 CNS it was 2.75 µM; in the experiment with NCI-H23 lung, 3.36 µM; in the experiment with 786-0 renal, 2.65 µM; in the experiment with K-562 leukemia it was 5.47 µM. The TGI in the experiment with MOLT-4 leukemia is 3.47 µM; in the experiment with HCC-2998 colon it was 3.36 µM; in the experiment on PC-3 prostate it was 2.79 µM; with SNB-75 CNS, 3.05 µM.
Take `COc1ccc(-c2cc(=O)c3ccc(O)cc3o2)cc1OC`: the TGI in the experiment on HT29 colon, in the experiment on DU-145 prostate, with SNB-19 CNS, in the experiment with NCI-H23 lung, in the experiment on 786-0 renal and in the experiment with K-562 leukemia was > 100 µM in each case. The TGI in the experiment with MOLT-4 leukemia, in the experiment on HCC-2998 colon, with PC-3 prostate and with SNB-75 CNS was > 100 µM in each case.
`COc1cc2c(c(O)c1Br)C(=O)c1c(O)cc(C[C@H](C)O)cc1[C@H]2[C@H]1c2cc(C[C@H](C)O)cc(O)c2C(=O)c2c1cc(OC)c(Br)c2O`: the GI50 in the experiment on HT29 colon was 2.39 µM and 4.83 µM; in the experiment on DU-145 prostate, 4.8 µM and 23.1 µM; in the experiment with SNB-19 CNS it was 5.07 µM and 10.4 µM; in the experiment on NCI-H23 lung, 5.85 µM and 4.83 µM; with 786-0 renal it was 23 µM and 14.1 µM; in the experiment on K-562 leukemia, 2.74 µM and 6.22 µM. Further, the GI50 was 3.54 µM and 6.39 µM in the experiment with MOLT-4 leukemia; 8.39 µM and 14.8 µM in the experiment with HCC-2998 colon; 2.85 µM and 4.4 µM in the experiment with PC-3 prostate; 5.09 µM and 16 µM in the experiment with SNB-75 CNS. Further, the TGI was 67.5 µM and > 100 µM with HT29 colon; 67.5 µM and > 100 µM with DU-145 prostate; 67.5 µM and 80.1 µM with SNB-19 CNS; 42.1 µM and 39.3 µM in the experiment with NCI-H23 lung; 67.5 µM and > 100 µM in the experiment with 786-0 renal; 67.5 µM and > 100 µM in the experiment on K-562 leukemia. Further, the TGI in the experiment on MOLT-4 leukemia was 67.5 µM and > 100 µM; with HCC-2998 colon, 67.5 µM and > 100 µM; in the experiment on PC-3 prostate, 67.5 µM and > 100 µM; in the experiment on SNB-75 CNS it was 56.5 µM and 67 µM.
Take `Cn1c2ccccc2c2c(-c3ccccc3)[n+]3ccncc3nc21`: the GI50 was > 100 µM in the experiment with HT29 colon; > 100 µM with DU-145 prostate; 51.8 µM in the experiment on SNB-19 CNS; > 100 µM in the experiment on NCI-H23 lung; > 100 µM in the experiment with 786-0 renal; > 100 µM in the experiment on K-562 leukemia. The GI50 in the experiment on MOLT-4 leukemia, with HCC-2998 colon, in the experiment on PC-3 prostate and in the experiment with SNB-75 CNS was > 100 µM throughout. The TGI in the experiment on HT29 colon, with DU-145 prostate, in the experiment on SNB-19 CNS, in the experiment with NCI-H23 lung, with 786-0 renal and in the experiment with K-562 leukemia was > 100 µM throughout. Moreover, the TGI with MOLT-4 leukemia, with HCC-2998 colon, in the experiment with PC-3 prostate and in the experiment on SNB-75 CNS was > 100 µM in each case.

For the origin of these results see PubChem BioAssay (NCI).
